system: GBM8 cells (human glioblastoma neurosphere cell culture); assay: GBM8 viability assay (Cell Titer Glo luminescence, 3 days); assay type: cell-based; details: 72 h, 3 days incubation
Method: Example 283: GBM4 and GBM8 Viability Assay
Cell culture medium was prepared from a NSA proliferation kit (Neurocult) and NeuroCult supplements (Stemcell Tech Cat. #05751) and treated with 20 μL of 10 μg/mL rh EGF, 10 μL of 10 μg/mL rh bFGF and 10 μL of 0.2% Heparin. In this medium, human glioblastoma cells were cultured in ultra-low attachment tissue culture flasks until 1×10^6 cells ml was achieved (GBM4 and GBM8 are distinct neurosphere cell cultures derived from these human patient tissues). GBM4 and GBM8 cells were dissociated and 10 mL of media containing 4000 human glioblastoma cells per 90 uL were transferred to an ultra-low binding 96-well plate and incubated at 37° C. overnight. On the following day, 10 μL of a 1% DMSO solution of test compound in assay medium was added to wells containing the cell suspension and the mixture incubated at 37° C. for 3 days. At this time, the plate was removed from the incubator and allowed to reach room temperature. After about 30 minutes, 50 μL of Cell Titer Glo solution was added to each well and the plate shaken for 1 minute at low speed. After 10 minutes luminescence was recorded using a Tecan Safire2 reader.
Reduction in luminescence compared to DMSO only control wells was used to determine the percentage inhibition of cell growth. IC50s were calculated using the % inhibition of luminescence for serial dilutions of compounds fitted to a 4-parameter fit within the Prism (San Diego) curve fitting program.

SMILES	IC50 [µM]
Cc1cc(NCC(C)O)nc(NC(=O)Nc2ccc(Cl)c(Cl)c2)n1 (stereo not drawn) [Compound 10, 1-{2-[3-(3,4-Dichlorophenyl)ureido]-6-methyl-4-pyrimidinylamino}-2-propanol]	< 1
Cc1cc(NCCN(C)C)nc(NC(=O)Nc2ccc(Cl)c(Cl)c2)n1 [Compound 11]	< 1
Cc1cc(NCCO)nc(NC(=O)Nc2ccc(Cl)c(Cl)c2)n1 [Compound 12]	< 1
Cc1cc(NCCCCO)nc(NC(=O)Nc2ccc(Cl)c(Cl)c2)n1 [Compound 13]	< 1
Cc1cc(NCCN)nc(NC(=O)Nc2ccc(Cl)c(Cl)c2)n1 [Compound 14]	< 1
Cc1cc(NCCCCN)nc(NC(=O)Nc2ccc(Cl)c(Cl)c2)n1 [Compound 15]	< 1
Cc1cc(NCC2CCCN(C)C2)nc(NC(=O)Nc2ccc(Cl)c(Cl)c2)n1 (stereo not drawn) [Compound 16]	< 1
Cc1cc(NCCCCN(C)C)nc(NC(=O)Nc2ccc(Cl)c(Cl)c2)n1 [Compound 17]	< 1
Cc1cc(NCCOCCO)nc(NC(=O)Nc2ccc(Cl)c(Cl)c2)n1 [Compound 18]	< 1
Cc1cc(NCCC(N)=O)nc(NC(=O)Nc2ccc(Cl)c(Cl)c2)n1 [Compound 19]	1 to 10
COC(=O)CCNc1cc(C)nc(NC(=O)Nc2ccc(Cl)c(Cl)c2)n1 [Compound 20]	< 1
Cc1cc(NCCCc2ccccn2)nc(NC(=O)Nc2ccc(Cl)c(Cl)c2)n1 [Compound 21]	1 to 10
CNCCCCNc1cc(C)nc(NC(=O)Nc2ccc(Cl)c(Cl)c2)n1 [Compound 26, 1-(3,4-dichlorophenyl)-3-(4-methyl-6-((4-(methylamino)butyl)amino)pyrimidin-2-yl)urea]	< 1
Cc1cc(NCC2CCCNC2)nc(NC(=O)Nc2ccc(Cl)c(Cl)c2)n1 (stereo not drawn) [Compound 27]	< 1
CNCCNc1cc(C)nc(NC(=O)Nc2ccc(Cl)c(Cl)c2)n1 [Compound 28]	< 1
CNCCCNc1cc(C)nc(NC(=O)Nc2ccc(Cl)c(Cl)c2)n1 [Compound 29]	< 1
Cc1cc(NCCCO)nc(N2CCN(c3ccc(Cl)c(Cl)c3)C2=O)n1 [Compound 35, 3-(3,4-dichlorophenyl)-1-[4-(3-hydroxypropylamino)-6-methyl-2-pyrimidinyl]-2-imidazolidinone]	< 1
Cc1cc(NCCCN(C)C)nc(N2CCN(c3ccc(Cl)c(Cl)c3)C2=O)n1 [Compound 36, 3-(3,4-dichlorophenyl)-1-{4-[3-(dimethylamino)propylamino]-6-methyl-2-pyrimidinyl}-2-imidazolidinone]	< 1
Cc1cc(NCCCO)nc(NC(=O)Nc2ccc(Cl)cc2)n1 [Compound 41, 3-{2-[3-(p-Chlorophenyl)ureido]-6-methyl-4-pyrimidinylamino}-propanol]	< 1
Cc1cc(NCCCO)nc(NC(=O)Nc2cccc(Cl)c2)n1 [Compound 43, 3-{2-[3-(m-chlorophenyl)ureido]-6-methyl-4-pyrimidinylamino}-propanol]	< 1
Cc1cc(NCCCN(C)C)nc(NC(=O)Nc2ccc(Cl)cc2)n1 [Compound 44, 1-{2-[3-(4-chloro-phenyl)ureido]-6-methyl-4-pyrimidin-ylamino}-3-(dimethylamino)propane]	< 1

SMILES	IC50 [µM]
Cc1cc(NCCCN(C)C)nc(NC(=O)Nc2cccc(Cl)c2)n1 [Compound 45, 1-{2-[3-(3-Chloro-phenyl)ureido]-6-methyl-4-pyrimidin-ylamino}-3-(dimethyl-amino)propane]	< 1
Cc1cc(NCCCN(C)C)nc(NC(=O)Nc2ccc(Cl)c(C(F)(F)F)c2)n1 [Compound 47, 1-(2-{3-[4-chloro-3-(trifluoromethyl)phenyl]ureido}-6-methyl-4-pyrimidinylamino)-3-(dimethylamino)propane]	< 1
Cc1cc(NCCN(C)C)nc(NC(=O)Nc2ccc(Cl)c(C(F)(F)F)c2)n1 [Compound 48]	1 to 10
Cc1cc(NCCO)nc(NC(=O)Nc2ccc(Cl)c(C(F)(F)F)c2)n1 [Compound 49]	< 1
Cc1cc(NCCCCO)nc(NC(=O)Nc2ccc(Cl)c(C(F)(F)F)c2)n1 [Compound 50]	< 1
Cc1cc(NCCOCCO)nc(NC(=O)Nc2ccc(Cl)c(C(F)(F)F)c2)n1 [Compound 51]	< 1
Cc1cc(NCC(O)CO)nc(NC(=O)Nc2ccc(Cl)c(C(F)(F)F)c2)n1 (stereo not drawn) [Compound 52]	< 1
Cc1cc(NCC(F)(F)CO)nc(NC(=O)Nc2ccc(Cl)c(C(F)(F)F)c2)n1 [Compound 53]	< 1
Cc1cc(NCC(C)O)nc(NC(=O)Nc2ccc(Cl)c(C(F)(F)F)c2)n1 (stereo not drawn) [Compound 54]	< 1
Cc1cc(NCCN)nc(NC(=O)Nc2ccc(Cl)c(C(F)(F)F)c2)n1 [Compound 55]	< 1
Cc1cc(NCCCCN(C)C)nc(NC(=O)Nc2ccc(Cl)c(C(F)(F)F)c2)n1 [Compound 56]	1 to 10
Cc1cc(NCCc2ccccn2)nc(NC(=O)Nc2ccc(Cl)c(C(F)(F)F)c2)n1 [Compound 57]	1 to 10
Cc1cc(NCCCc2cnc[nH]2)nc(NC(=O)Nc2ccc(Cl)c(C(F)(F)F)c2)n1 [Compound 59]	< 1
Cc1cc(NCCC(N)=O)nc(NC(=O)Nc2ccc(Cl)c(C(F)(F)F)c2)n1 [Compound 60]	< 1
CNCCNc1cc(C)nc(NC(=O)Nc2ccc(Cl)c(C(F)(F)F)c2)n1 [Compound 63, 1-(4-chloro-3-(trifluoromethyl)phenyl)-3-(4-methyl-6-((2-(methylamino)ethyl)amino)pyrimidin-2-yl)urea]	1 to 10
CNCCCNc1cc(C)nc(NC(=O)Nc2ccc(Cl)c(C(F)(F)F)c2)n1 [Compound 64]	< 1
CNCCCCNc1cc(C)nc(NC(=O)Nc2ccc(Cl)c(C(F)(F)F)c2)n1 [Compound 65]	< 1
Cc1cc(NCC2CCCNC2)nc(NC(=O)Nc2ccc(Cl)c(C(F)(F)F)c2)n1 (stereo not drawn) [Compound 66]	< 1
Cc1cc(NC2CCNC2)nc(NC(=O)Nc2ccc(Cl)c(C(F)(F)F)c2)n1 (stereo not drawn) [Compound 67]	< 1
Cc1cc(NCCCN(C)C)nc(NC(=O)Nc2ccccc2)n1 [Compound 69, 1-(4-((3-(dimethylamino)propyl)amino)-6-methylpyrimidin-2-yl)-3-phenylurea]	1 to 10
Cc1cc(NCCCO)nc(NC(=O)Nc2ccccc2)n1 [Compound 70, 1-(4-((3-hydroxypropyl)amino)-6-methylpyrimidin-2-yl)-3-phenylurea]	1 to 10

SMILES	IC50 [µM]
Cc1cc(NCCO)nc(NC(=O)Nc2ccccc2)n1 [Compound 71]	1 to 10
Cc1cc(NCCN)nc(NC(=O)Nc2ccccc2)n1 [Compound 72, 1-(4-((2-aminoethyl)amino)-6-methylpyrimidin-2-yl)-3-phenylurea]	1 to 10
Cc1cc(NCCCCO)nc(NC(=O)Nc2ccccc2)n1 [Compound 73]	1 to 10
Cc1cc(NCCN(C)C)nc(NC(=O)Nc2ccccc2)n1 [Compound 74]	1 to 10
Cc1cc(NCCCN)nc(NC(=O)Nc2ccccc2)n1 [Compound 75]	1 to 10
Cc1cc(NCCCCN(C)C)nc(NC(=O)Nc2ccccc2)n1 [Compound 76]	1 to 10
Cc1cc(NCC(C)O)nc(NC(=O)Nc2ccccc2)n1 (stereo not drawn) [Compound 77]	1 to 10
Cc1cc(NCC(O)CO)nc(NC(=O)Nc2ccccc2)n1 (stereo not drawn) [Compound 78]	< 1
Cc1cc(NCC(F)(F)CO)nc(NC(=O)Nc2ccccc2)n1 [Compound 79]	1 to 10
CNCCNc1cc(C)nc(NC(=O)Nc2ccccc2)n1 [Compound 82, 1-(4-methyl-6-((2-(methylamino)ethyl)amino)pyrimidin-2-yl)-3-phenylurea]	1 to 10
CNCCCNc1cc(C)nc(NC(=O)Nc2ccccc2)n1 [Compound 83, 1-(4-methyl-6-((3-(methylamino)propyl)amino)pyrimidin-2-yl)-3-phenylurea]	1 to 10
Cc1cc(NCCCN(C)C)nc(NC(=O)Nc2ccc(OC(F)(F)F)cc2)n1 [Compound 85, 1-(4-((3-(dimethylamino)propyl)amino)-6-methylpyrimidin-2-yl)-3-(4-(trifluoromethoxy)phenyl)urea]	< 1
Cc1cc(NCCCO)nc(NC(=O)Nc2ccc(OC(F)(F)F)cc2)n1 [Compound 86, 1-(4-((3-hydroxypropyl)amino)-6-methylpyrimidin-2-yl)-3-(4-(trifluoromethoxy)phenyl)urea]	< 1
Cc1cc(NCCN)nc(NC(=O)Nc2ccc(OC(F)(F)F)cc2)n1 [Compound 87, 1-(4-((2-aminoethyl)amino)-6-methylpyrimidin-2-yl)-3-(4-(trifluoromethoxy)phenyl)urea]	< 1
Cc1cc(NCCN(C)C)nc(NC(=O)Nc2ccc(OC(F)(F)F)cc2)n1 [Compound 88]	< 1
Cc1cc(NCCCN)nc(NC(=O)Nc2ccc(OC(F)(F)F)cc2)n1 [Compound 89]	< 1
CCNc1cc(C)nc(NC(=O)Nc2ccc(OC(F)(F)F)cc2)n1 [Compound 90]	< 1
CCCNc1cc(C)nc(NC(=O)Nc2ccc(OC(F)(F)F)cc2)n1 [Compound 91]	< 1
COC(=O)CCNc1cc(C)nc(NC(=O)Nc2ccc(OC(F)(F)F)cc2)n1 [Compound 92]	< 1
Cc1cc(NCCC(N)=O)nc(NC(=O)Nc2ccc(OC(F)(F)F)cc2)n1 [Compound 93]	< 1
Cc1cc(NCC(F)(F)CO)nc(NC(=O)Nc2ccc(OC(F)(F)F)cc2)n1 [Compound 94]	< 1
